Reference: DBAASP
Converted amounts (≈) assume the structure as drawn. One block for each compound: values may come before it.

Experiments:
Test in all cases: ≥ marks a high value that may be exact or a test limit, other limits are often not marked, values filed in µg/mL are converted to µM
[1] = test system: Candida albicans NCYC 1467
[2] = test system: Escherichia coli NCTC 10418
[3] = test system: Pseudomonas aeruginosa ATCC 27853
[4] = test system: Staphylococcus aureus ATCC 43300
[5] = test system: Staphylococcus aureus NCTC 10788
[6] = test system: Staphylococcus aureus NCTC 12493
[7] = test system: Staphylococcus aureus ATCC BAA-1556
[8] = test system: Escherichia coli JW0013
[9] = test system: Bacillus subtilis 168
[10] = test system: Candida albicans F7-39/IDE99
[11] = test system: Escherichia coli B
[12] = test system: Micrococcus luteus CCM 144
[13] = test system: Pseudomonas aeruginosa
[14] = test system: Staphylococcus aureus
[15] = test system: Bacillus cereus ATCC 11778
[16] = test system: Escherichia coli ATCC 35218
[17] = test system: Pseudomonas aeruginosa ATCC 9027
[18] = test system: Staphylococcus aureus ATCC 25923
[19] = test system: Bacillus subtilis CMCC 63501
[20] = test system: Escherichia coli UB1005
[21] = test system: Salmonella enterica subsp. enterica serovar Pullorum C79-13
[22] = test system: Salmonella enterica subsp. enterica serovar Typhimurium ATCC 14028
[23] = test system: Staphylococcus epidermidis ATCC 12228

Structure (SMILES): CSCC[C@H](NC(=O)[C@H](CC(=O)O)NC(=O)[C@@H](NC(=O)[C@@H](NC(=O)[C@H](C)NC(=O)[C@H](CC(N)=O)NC(=O)[C@H](CC(C)C)NC(=O)[C@H](C)NC(=O)[C@H](C)NC(=O)[C@H](CCCCN)NC(=O)CNC(=O)[C@H](C)NC(=O)[C@H](C)NC(=O)[C@H](CCCCN)NC(=O)CNC(=O)[C@@H](NC(=O)[C@H](CC(N)=O)NC(=O)[C@H](CCCCN)NC(=O)[C@H](Cc1ccccc1)NC(=O)[C@H](CC(C)C)NC(=O)[C@H](CO)NC(=O)[C@H](CCCCN)NC(=O)[C@H](Cc1c[nH]c2ccccc12)NC(=O)[C@H](CC(C)C)NC(=O)CN)C(C)C)C(C)C)[C@@H](C)O)C(=O)N[C@H](C(=O)N[C@@H](CC(N)=O)C(=O)N[C@@H](CCC(N)=O)C(N)=O)C(C)C [GLWKSLFKNVGKAAGKAALNAVTDMVNQ]
MIC [1]: 10.9 µM (≈ 32 µg/mL)
MIC [2]: 5.46 µM (≈ 16 µg/mL)
MIC [3]: 21.8 µM (≈ 64 µg/mL)
MIC [4]: 10.9 µM (≈ 32 µg/mL)
MIC [5]: 5.46 µM (≈ 16 µg/mL)
MIC [6]: 21.8 µM (≈ 64 µg/mL)

Structure (SMILES): CC(C)C[C@H](NC(=O)[C@H](CC(C)C)NC(=O)[C@H](CC(C)C)NC(=O)[C@H](CC(C)C)NC(=O)[C@H](CC(C)C)NC(=O)[C@H](CC(C)C)NC(=O)[C@H](CC(C)C)NC(=O)[C@@H](N)CCCCN)C(=O)N[C@@H](CCCCN)C(N)=O [KLLLLLLLK]
MIC [7]: ≥ 100 µM

Structure (SMILES): CC[C@H](C)[C@H](NC(=O)[C@H](CCCN=C(N)N)NC(=O)[C@@H](N)CCCCN)C(=O)N[C@@H](CCCN=C(N)N)C(=O)N1CCC[C@H]1C(=O)N[C@@H](CCCN=C(N)N)C(=O)N1CCC[C@H]1C(=O)N1CCC[C@H]1C(=O)N[C@@H](CCCN=C(N)N)C(=O)N[C@@H](CC(C)C)C(=O)N1CCC[C@H]1C(=O)N[C@@H](CCCN=C(N)N)C(=O)N1CCC[C@H]1C(=O)N[C@@H](CCCN=C(N)N)C(=O)N1CCC[C@H]1C(=O)N[C@@H](CCCN=C(N)N)C(=O)O [KRIRPRPPRLPRPRPR]
MIC [8]: 0.3 µM (≈ 0.615 µg/mL)

Structure (SMILES): CC(C)C[C@H](NC(=O)[C@H](CC(C)C)NC(=O)[C@H](CC(C)C)NC(=O)[C@H](CCCCN)NC(=O)[C@H](CC(C)C)NC(=O)[C@H](CC(C)C)NC(=O)[C@H](CC(C)C)NC(=O)[C@H](CCCCN)NC(=O)[C@@H](N)CC(C)C)C(N)=O [LKLLLKLLL]
MIC [7]: ≥ 100 µM

Structure (SMILES): CC[C@H](C)[C@H](NC(=O)[C@H](C)NC(=O)CNC(=O)[C@H](Cc1c[nH]c2ccccc12)NC(=O)[C@H](CCCCN)NC(=O)[C@@H](N)CC(C)C)C(=O)N[C@@H](CC(C)C)C(=O)N[C@@H](CCCCN)C(=O)N[C@@H](Cc1cnc[nH]1)C(=O)N[C@H](C(=O)N[C@H](C(=O)N[C@@H](CCCCN)C(N)=O)[C@@H](C)CC)[C@@H](C)CC [LKWGAILKHIIK]
MIC [9]: 3.7 µM (≈ 5.25 µg/mL)
MIC [10]: 5.1 µM (≈ 7.24 µg/mL)
MIC [11]: 3.7 µM (≈ 5.25 µg/mL)
MIC [12]: 3.7 µM (≈ 5.25 µg/mL)
MIC [13]: 46.7 µM (≈ 66.3 µg/mL)
MIC [14]: 11.7 µM (≈ 16.6 µg/mL)

Structure (SMILES): CC(C)C[C@H](NC(=O)[C@H](CCCCN)NC(=O)[C@H](CC(C)C)NC(=O)[C@H](CC(C)C)NC(=O)[C@H](CC(C)C)NC(=O)[C@H](CC(C)C)NC(=O)[C@H](CC(C)C)NC(=O)[C@@H](N)CC(C)C)C(=O)N[C@@H](CCCCN)C(N)=O [LLLLLLKLK]
MIC [7]: ≥ 100 µM

Structure (SMILES): CC(C)C[C@H](NC(=O)[C@H](C)NC(=O)[C@H](C)NC(=O)CNC(=O)[C@H](Cc1c[nH]c2ccccc12)NC(=O)[C@H](CC(N)=O)NC(=O)[C@@H](N)CC(C)C)C(=O)N[C@@H](CCCCN)C(=O)N[C@@H](Cc1cnc[nH]1)C(=O)N[C@@H](C)C(=O)N[C@@H](C)C(=O)N[C@@H](CCCCN)C(N)=O [LNWGAALKHAAK]
MIC [9]: ≥ 100 µM
MIC [10]: ≥ 100 µM
MIC [11]: ≥ 100 µM
MIC [12]: ≥ 100 µM
MIC [13]: > 100 µM
MIC [14]: > 100 µM

Structure (SMILES): CC(C)C[C@H](NC(=O)[C@H](CC(C)C)NC(=O)[C@@H](N)[C@@H](C)O)C(=O)N[C@@H](CCCCN)C(=O)N[C@@H](CCCCN)C(=O)N[C@H](C(=O)N[C@@H](CC(C)C)C(=O)N[C@@H](CCCCN)C(=O)N[C@@H](C)C(=O)N[C@@H](C)C(=O)N[C@@H](C)C(N)=O)C(C)C [TLLKKVLKAAA]
MIC [15]: ≥ 50 µM
MIC [16]: ≥ 50 µM
MIC [17]: > 50 µM
MIC [18]: > 50 µM

Results, then the compound that gave them:

MIC [8]: 0.3 µM (≈ 0.694 µg/mL)
Structure (SMILES): CC[C@H](C)[C@H](NC(=O)[C@@H]1CCCN1C(=O)[C@H](CCCCN)NC(=O)[C@@H]1CCCN1C(=O)[C@@H]1CCCN1C(=O)[C@@H](NC(=O)[C@@H]1CCCN1C(=O)[C@H](CCCN=C(N)N)NC(=O)[C@@H]1CCCN1C(=O)[C@H](CC(C)C)NC(=O)[C@H](Cc1ccc(O)cc1)NC(=O)[C@H](CO)NC(=O)CNC(=O)[C@H](CCCCN)NC(=O)[C@H](CC(=O)O)NC(=O)[C@@H](N)C(C)C)[C@@H](C)O)C(=O)N[C@@H](Cc1ccc(O)cc1)C(=O)N[C@@H](CC(N)=O)C(=O)N[C@@H](CCCN=C(N)N)C(=O)N[C@@H](CC(N)=O)C(=O)O [VDKGSYLPRPTPPKPIYNRN]

MIC [8]: 0.3 µM (≈ 0.715 µg/mL)
Structure (SMILES): CC[C@H](C)[C@H](NC(=O)[C@@H]1CCCN1C(=O)[C@H](CCCN=C(N)N)NC(=O)[C@@H]1CCCN1C(=O)[C@@H]1CCCN1C(=O)[C@@H](NC(=O)[C@@H]1CCCN1C(=O)[C@H](CCCN=C(N)N)NC(=O)[C@@H]1CCCN1C(=O)[C@H](CCCN=C(N)N)NC(=O)[C@H](Cc1ccc(O)cc1)NC(=O)[C@H](CO)NC(=O)CNC(=O)[C@H](CCCCN)NC(=O)[C@H](CC(=O)O)NC(=O)[C@@H](N)C(C)C)[C@@H](C)O)C(=O)N[C@@H](Cc1ccc(O)cc1)C(=O)N[C@@H](CC(N)=O)C(=O)N[C@@H](CCCN=C(N)N)C(=O)N[C@@H](CC(N)=O)C(=O)O [VDKGSYRPRPTPPRPIYNRN]

MIC [8]: 2.03 µM (≈ 4.8 µg/mL)
Structure (SMILES): CC[C@H](C)[C@H](NC(=O)[C@H](CCCN=C(N)N)NC(=O)[C@H](CCCN=C(N)N)NC(=O)[C@@H]1CCCN1C(=O)[C@@H]1CCCN1C(=O)[C@H](CCCN=C(N)N)NC(=O)[C@@H]1CCCN1C(=O)[C@H](CCSC)NC(=O)[C@@H]1CCCN1C(=O)[C@H](CC(C)C)NC(=O)[C@H](Cc1ccc(O)cc1)NC(=O)[C@@H]1CCCN1C(=O)[C@@H]1CCCN1C(=O)[C@H](CCCCN)NC(=O)[C@H](CC(=O)O)NC(=O)[C@@H](N)C(C)C)C(=O)N[C@@H](Cc1ccc(O)cc1)C(=O)N[C@@H](CC(N)=O)C(=O)N[C@@H](CCCN=C(N)N)C(N)=O [VDKPPYLPMPRPPRRIYNR]

MIC [8]: 0.959 µM (≈ 2.4 µg/mL)
Structure (SMILES): CC[C@H](C)[C@H](NC(=O)[C@H](CCCN=C(N)N)NC(=O)[C@H](CCCN=C(N)N)NC(=O)[C@@H]1CCCN1C(=O)[C@@H]1CCCN1C(=O)[C@H](CCCN=C(N)N)NC(=O)[C@H](CCCN=C(N)N)NC(=O)[C@H](CCCN=C(N)N)NC(=O)[C@@H]1CCCN1C(=O)[C@H](CC(C)C)NC(=O)[C@H](CCCN=C(N)N)NC(=O)[C@@H]1CCCN1C(=O)[C@H](CCCN=C(N)N)NC(=O)[C@H](CCCCN)NC(=O)[C@H](CC(=O)O)NC(=O)[C@@H](N)C(C)C)C(=O)N[C@@H](Cc1ccc(O)cc1)C(=O)N[C@@H](CC(N)=O)C(=O)N[C@@H](CCCN=C(N)N)C(N)=O [VDKRPRLPRRRPPRRIYNR]

MIC [7]: ≥ 100 µM
Structure (SMILES): CC(C)C[C@H](NC(=O)[C@H](CC(C)C)NC(=O)[C@H](CCCCN)NC(=O)[C@H](CC(C)C)NC(=O)[C@H](CC(C)C)NC(=O)[C@@H](N)Cc1c[nH]c2ccccc12)C(N)=O [WLLKLL]

MIC [19]: 8 µM (≈ 15.4 µg/mL)
MIC [20]: 4 µM (≈ 7.7 µg/mL)
MIC [3]: 8 µM (≈ 15.4 µg/mL)
MIC [21]: 2 µM (≈ 3.85 µg/mL)
MIC [22]: 8 µM (≈ 15.4 µg/mL)
MIC [18]: 8 µM (≈ 15.4 µg/mL)
MIC [4]: 4 µM (≈ 7.7 µg/mL)
MIC [23]: 16 µM (≈ 30.8 µg/mL)
Structure (SMILES): CC(=O)N[C@@H](Cc1c[nH]c2ccccc12)C(=O)N[C@@H](CCCN=C(N)N)C(=O)N[C@@H](CCCCN)C(=O)N[C@@H](CC(C)C)C(=O)N[C@@H](Cc1c[nH]c2ccccc12)C(=O)N[C@@H](CCCN=C(N)N)C(=O)NCC(=O)NCC(=O)N[C@@H](CC(C)C)C(=O)N[C@@H](CCCCN)C(=O)N[C@@H](CCCN=C(N)N)C(=O)N[C@@H](Cc1c[nH]c2ccccc12)C(=O)N[C@@H](CC(C)C)C(=O)N[C@@H](CCCCN)C(N)=O [WRKLWRGGLKRWLK]

MIC [7]: 3.12 µM (≈ 4.51 µg/mL)
Structure (SMILES): CC(C)C[C@H](NC(=O)[C@H](Cc1c[nH]c2ccccc12)NC(=O)[C@H](Cc1c[nH]c2ccccc12)NC(=O)[C@H](CC(C)C)NC(=O)[C@H](CCCN=C(N)N)NC(=O)[C@H](Cc1c[nH]c2ccccc12)NC(=O)[C@H](CC(C)C)NC(=O)[C@H](Cc1c[nH]c2ccccc12)NC(=O)[C@@H](N)Cc1c[nH]c2ccccc12)C(N)=O [WWLWRLWWL]
